PubChem BioAssay (NCI)
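In this assay, cells in 96-well plates receive the compound at five concentrations for 48 hours. Endpoints are linearly interpolated between the surrounding concentrations. TGI: concentration producing complete growth inhibition.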

Legend:
Test in all cases: NCI tumour cell line growth inhibition, 48 h
786-0 renal = test system: 786-0 renal
A498 renal = test system: A498 renal
A549 NSCLC = test system: A549 NSCLC
ACHN renal = test system: ACHN renal
CAKI-1 renal = test system: CAKI-1 renal
CCRF-CEM leukemia = test system: CCRF-CEM leukemia
COLO 205 colon = test system: COLO 205 colon
DLD-1 colon = test system: DLD-1 colon
DMS 114 small cell lung = test system: DMS 114 small cell lung
DMS 273 small cell lung = test system: DMS 273 small cell lung
EKVX NSCLC = test system: EKVX NSCLC
HCC-2998 colon = test system: HCC-2998 colon
HCT-116 colon = test system: HCT-116 colon
HCT-15 colon = test system: HCT-15 colon
HL-60(TB) leukemia = test system: HL-60(TB) leukemia
HOP-18 NSCLC = test system: HOP-18 NSCLC
HOP-62 NSCLC = test system: HOP-62 NSCLC
HOP-92 NSCLC = test system: HOP-92 NSCLC
HT29 colon = test system: HT29 colon
IGROV1 ovarian = test system: IGROV1 ovarian
KM12 colon = test system: KM12 colon
KM20L2 colon = test system: KM20L2 colon
LOX IMVI melanoma = test system: LOX IMVI melanoma
LXFL 529 NSCLC = test system: LXFL 529 NSCLC
M14 melanoma = test system: M14 melanoma
M19-MEL melanoma = test system: M19-MEL melanoma
MALME-3M melanoma = test system: MALME-3M melanoma
MOLT-4 leukemia = test system: MOLT-4 leukemia
NCI-H226 lung = test system: NCI-H226 lung
NCI-H23 lung = test system: NCI-H23 lung
NCI-H460 lung = test system: NCI-H460 lung
OVCAR-3 ovarian = test system: OVCAR-3 ovarian
OVCAR-4 ovarian = test system: OVCAR-4 ovarian
OVCAR-5 ovarian = test system: OVCAR-5 ovarian
OVCAR-8 ovarian = test system: OVCAR-8 ovarian
RPMI-8226 leukemia = test system: RPMI-8226 leukemia
RXF 393 renal = test system: RXF 393 renal
RXF-631 renal = test system: RXF-631 renal
SF-268 CNS = test system: SF-268 CNS
SF-295 CNS = test system: SF-295 CNS
SF-539 CNS = test system: SF-539 CNS
SK-MEL-28 melanoma = test system: SK-MEL-28 melanoma
SK-MEL-5 melanoma = test system: SK-MEL-5 melanoma
SK-OV-3 ovarian = test system: SK-OV-3 ovarian
SN12C renal = test system: SN12C renal
SNB-19 CNS = test system: SNB-19 CNS
SNB-75 CNS = test system: SNB-75 CNS
SNB-78 CNS = test system: SNB-78 CNS
SR leukemia = test system: SR leukemia
SW-620 colon = test system: SW-620 colon
TK-10 renal = test system: TK-10 renal
U251 CNS = test system: U251 CNS
UACC-257 melanoma = test system: UACC-257 melanoma
UACC-62 melanoma = test system: UACC-62 melanoma
UO-31 renal = test system: UO-31 renal
XF 498 CNS = test system: XF 498 CNS
K-562 leukemia = test system: K-562 leukemia
SK-MEL-2 melanoma = test system: SK-MEL-2 melanoma
NCI-H522 lung = test system: NCI-H522 lung

## CCCCCCCCCCCCCCCCCC(=O)NCC(COP(=O)([O-])OCC[N+](C)(C)C)OC (stereo not drawn)
786-0 renal
  TGI: 3.07 µM
A498 renal
  TGI: 10.3 µM
A549 NSCLC
  TGI: 22.4 µM
ACHN renal
  TGI: 22.7 µM
CAKI-1 renal
  TGI: 8.14 µM
CCRF-CEM leukemia
  TGI: 5.66 µM
COLO 205 colon
  TGI: 3.24 µM
DLD-1 colon
  TGI: 8.17 µM
DMS 114 small cell lung
  TGI: 22.7 µM
DMS 273 small cell lung
  TGI: 2.93 µM
EKVX NSCLC
  TGI: 31.1 µM
HCC-2998 colon
  TGI: 2.31 µM
HCT-116 colon
  TGI: 18.5 µM
HCT-15 colon
  TGI: 5.89 µM
HL-60(TB) leukemia
  TGI: 2.9 µM
HOP-18 NSCLC
  TGI: 6.92 µM
HOP-62 NSCLC
  TGI: 8.21 µM
HOP-92 NSCLC
  TGI: 8.17 µM
HT29 colon
  TGI: 12.9 µM
IGROV1 ovarian
  TGI: 4.72 µM
KM12 colon
  TGI: 2.09 µM
KM20L2 colon
  TGI: 5.5 µM
LOX IMVI melanoma
  TGI: 23.3 µM
LXFL 529 NSCLC
  TGI: 19.7 µM
M14 melanoma
  TGI: 25.5 µM
M19-MEL melanoma
  TGI: 6.28 µM
MALME-3M melanoma
  TGI: 20.9 µM
MOLT-4 leukemia
  TGI: 3.56 µM
NCI-H226 lung
  TGI: 8.69 µM
NCI-H23 lung
  TGI: 28.7 µM
NCI-H460 lung
  TGI: 2.59 µM
OVCAR-3 ovarian
  TGI: 10.2 µM
OVCAR-4 ovarian
  TGI: 13 µM
OVCAR-5 ovarian
  TGI: 14.4 µM
OVCAR-8 ovarian
  TGI: 23.6 µM
RPMI-8226 leukemia
  TGI: 4.67 µM
RXF 393 renal
  TGI: 2.1 µM
RXF-631 renal
  TGI: 26.8 µM
SF-268 CNS
  TGI: 17.5 µM
SF-295 CNS
  TGI: 13 µM
SF-539 CNS
  TGI: 31.8 µM
SK-MEL-28 melanoma
  TGI: 30.6 µM
SK-MEL-5 melanoma
  TGI: 29.5 µM
SK-OV-3 ovarian
  TGI: 28.7 µM
SN12C renal
  TGI: 15.3 µM
SNB-19 CNS
  TGI: 3.48 µM
SNB-75 CNS
  TGI: 15.8 µM
SNB-78 CNS
  TGI: 13.6 µM
SR leukemia
  TGI: 7.36 µM
SW-620 colon
  TGI: 22.9 µM
TK-10 renal
  TGI: 3.02 µM
U251 CNS
  TGI: 4.04 µM
UACC-257 melanoma
  TGI: 30.2 µM
UACC-62 melanoma
  TGI: 16.9 µM
UO-31 renal
  TGI: 30.7 µM
XF 498 CNS
  TGI: 8.58 µM

## N#CC1(Cc2ccccc2)CCCCN1C(=O)c1ccccc1 (stereo not drawn)
786-0 renal
  TGI: > 100 µM
A498 renal
  TGI: > 100 µM
A549 NSCLC
  TGI: > 100 µM
ACHN renal
  TGI: > 100 µM
CCRF-CEM leukemia
  TGI: > 100 µM
COLO 205 colon
  TGI: > 100 µM
DLD-1 colon
  TGI: > 100 µM
DMS 114 small cell lung
  TGI: > 100 µM
DMS 273 small cell lung
  TGI: > 100 µM
EKVX NSCLC
  TGI: > 100 µM
HCC-2998 colon
  TGI: > 100 µM
HCT-116 colon
  TGI: > 100 µM
HCT-15 colon
  TGI: > 100 µM
HL-60(TB) leukemia
  TGI: > 100 µM
HOP-18 NSCLC
  TGI: > 100 µM
HOP-62 NSCLC
  TGI: > 100 µM
HOP-92 NSCLC
  TGI: > 100 µM
HT29 colon
  TGI: > 100 µM
IGROV1 ovarian
  TGI: > 100 µM
K-562 leukemia
  TGI: > 100 µM
KM12 colon
  TGI: > 100 µM
KM20L2 colon
  TGI: > 100 µM
LOX IMVI melanoma
  TGI: > 100 µM
LXFL 529 NSCLC
  TGI: > 100 µM
M14 melanoma
  TGI: > 100 µM
M19-MEL melanoma
  TGI: > 100 µM
MALME-3M melanoma
  TGI: > 100 µM
MOLT-4 leukemia
  TGI: > 100 µM
NCI-H23 lung
  TGI: > 100 µM
NCI-H460 lung
  TGI: > 100 µM
OVCAR-3 ovarian
  TGI: > 100 µM
OVCAR-4 ovarian
  TGI: > 100 µM
OVCAR-5 ovarian
  TGI: > 100 µM
OVCAR-8 ovarian
  TGI: > 100 µM
RPMI-8226 leukemia
  TGI: > 100 µM
RXF 393 renal
  TGI: > 100 µM
RXF-631 renal
  TGI: > 100 µM
SF-268 CNS
  TGI: > 100 µM
SF-295 CNS
  TGI: > 100 µM
SF-539 CNS
  TGI: > 100 µM
SK-MEL-2 melanoma
  TGI: 9.11 µM
SK-MEL-28 melanoma
  TGI: > 100 µM
SK-MEL-5 melanoma
  TGI: > 100 µM
SK-OV-3 ovarian
  TGI: > 100 µM
SN12C renal
  TGI: > 100 µM
SNB-19 CNS
  TGI: > 100 µM
SNB-75 CNS
  TGI: > 100 µM
SNB-78 CNS
  TGI: > 100 µM
SR leukemia
  TGI: > 100 µM
SW-620 colon
  TGI: > 100 µM
TK-10 renal
  TGI: > 100 µM
U251 CNS
  TGI: > 100 µM
UACC-257 melanoma
  TGI: > 100 µM
UACC-62 melanoma
  TGI: > 100 µM
UO-31 renal
  TGI: > 100 µM
XF 498 CNS
  TGI: > 100 µM

## NC(=Nc1ccc(S(=O)(=O)Nc2cnc3ccccc3n2)cc1)/N=C(/N)Nc1ccc(Br)cc1
786-0 renal
  TGI: > 100 µM
A498 renal
  TGI: > 100 µM
A549 NSCLC
  TGI: > 100 µM
ACHN renal
  TGI: > 100 µM
CAKI-1 renal
  TGI: > 100 µM
CCRF-CEM leukemia
  TGI: > 100 µM
COLO 205 colon
  TGI: > 100 µM
DLD-1 colon
  TGI: > 100 µM
DMS 114 small cell lung
  TGI: > 100 µM
DMS 273 small cell lung
  TGI: > 100 µM
EKVX NSCLC
  TGI: > 100 µM
HCC-2998 colon
  TGI: > 100 µM
HCT-15 colon
  TGI: > 100 µM
HOP-18 NSCLC
  TGI: > 100 µM
HOP-62 NSCLC
  TGI: > 100 µM
HOP-92 NSCLC
  TGI: > 100 µM
HT29 colon
  TGI: > 100 µM
IGROV1 ovarian
  TGI: > 100 µM
K-562 leukemia
  TGI: > 100 µM
KM12 colon
  TGI: > 100 µM
KM20L2 colon
  TGI: > 100 µM
LOX IMVI melanoma
  TGI: > 100 µM
LXFL 529 NSCLC
  TGI: > 100 µM
M14 melanoma
  TGI: > 100 µM
M19-MEL melanoma
  TGI: > 100 µM
MALME-3M melanoma
  TGI: > 100 µM
MOLT-4 leukemia
  TGI: > 100 µM
NCI-H226 lung
  TGI: > 100 µM
NCI-H23 lung
  TGI: > 100 µM
NCI-H460 lung
  TGI: > 100 µM
NCI-H522 lung
  TGI: > 100 µM
OVCAR-3 ovarian
  TGI: > 100 µM
OVCAR-4 ovarian
  TGI: > 100 µM
OVCAR-5 ovarian
  TGI: > 100 µM
OVCAR-8 ovarian
  TGI: > 100 µM
RPMI-8226 leukemia
  TGI: > 100 µM
RXF-631 renal
  TGI: > 100 µM
SF-268 CNS
  TGI: > 100 µM
SF-295 CNS
  TGI: > 100 µM
SF-539 CNS
  TGI: > 100 µM
SK-MEL-2 melanoma
  TGI: > 100 µM
SK-MEL-28 melanoma
  TGI: > 100 µM
SK-MEL-5 melanoma
  TGI: > 100 µM
SK-OV-3 ovarian
  TGI: > 100 µM
SN12C renal
  TGI: > 100 µM
SNB-19 CNS
  TGI: > 100 µM
SNB-75 CNS
  TGI: > 100 µM
SNB-78 CNS
  TGI: > 100 µM
SR leukemia
  TGI: > 100 µM
SW-620 colon
  TGI: > 100 µM
TK-10 renal
  TGI: > 100 µM
U251 CNS
  TGI: > 100 µM
UACC-257 melanoma
  TGI: > 100 µM
UACC-62 melanoma
  TGI: > 100 µM
UO-31 renal
  TGI: > 100 µM
XF 498 CNS
  TGI: > 100 µM
